The assay addresses T1, human CCR10 (Homo sapiens, UniProt P46092).
T1 construct: expressed in transfected cells; host or cells: KJMGER8 cell (cell line derived from Namalwa cell); expression induced with 10 nmol/L β-estradiol
T1 sequence (P46092 1-362): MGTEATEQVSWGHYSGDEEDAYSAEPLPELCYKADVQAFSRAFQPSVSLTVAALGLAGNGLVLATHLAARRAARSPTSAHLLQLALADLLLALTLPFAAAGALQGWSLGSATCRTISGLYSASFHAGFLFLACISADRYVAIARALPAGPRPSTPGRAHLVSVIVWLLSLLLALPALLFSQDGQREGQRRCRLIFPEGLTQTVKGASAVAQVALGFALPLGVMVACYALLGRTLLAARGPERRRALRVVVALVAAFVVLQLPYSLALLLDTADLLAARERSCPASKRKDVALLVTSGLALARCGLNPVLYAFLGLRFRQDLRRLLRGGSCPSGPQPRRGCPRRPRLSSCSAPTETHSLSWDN
Kind of assay: Calcium assay of human CCR10 (inhibition of CTACK-induced increase in intracellular calcium ion concentration in hCCR10G16 cells). The settings on record: test compound 100 nmol/L; human recombinant CTACK; hCCR10G16 cells (KJMGER8/Namalwa-derived, Gα16 co-expressed); FLIPR or FDSS; read-out: Inhibitory rate (%) for an increase in calcium ion concentration. It is filed as cell-based. As for the experimental part: A CCR10-inducible expression plasmid was produced according to a known method (“Analytical Biochemistry”, 2006, vol. 400, page 163). A DNA encoding human CCR10 was obtained by PCR. Using human chromosomal DNA (100 ng; manufactured by Clontech Laboratories, Inc.) as a template, a synthetic DNA having the sequences shown by SEQ ID NOs: 1 and 2 as a human CCR10 cDNA specific primer, and Pyrobest DNA Polymerase (manufactured by TAKARA SHUZO CO. LTD.) as an enzyme, a DNA encoding human CCR10 was obtained by PCR. As a buffer solution for PCR, the buffer solution attached to the enzyme was diluted 10-fold with deionized water and used. Using Thermal Cycler DNA Engine (manufactured by MJ Research), PCR was performed by 35 cycles of reactions composed of an incubation at 90° C. for 2 min, at 94° C. for 30 seconds, at an anneal temperature of 58° C. for 30 seconds, and at 72° C. for 1 min.
The amplified PCR fragment was cleaved with HindIII and NotI, then a human CCR10 DNA fragment was recovered by an agarose gel electrophoresis method. The fragment was incorporated in between the corresponding restriction enzyme sites (HindIII-NotI) of an inducible expression vector, whereby a human CCR10-inducible expression plasmid were prepared.
Using a primer specific to the sequence of the plasmid (synthetic DNA having the sequences shown by SEQ ID NOs: 3 and 4), the sequence of human CCR10 DNA region was determined. For the determination of the base sequence, DNA sequencer 377 (manufactured by PerkinElmer) and a reaction kit (ABI Prism (registered trade mark) BigDye (registered trade mark) Terminator Cycle Sequencing Ready Reaction kit: manufactured by Applied Biosystems) were used. The sequence of human CCR10 DNA matched with the sequence (NM_016602) registered in GenBank.
Cells for the detection of the signal from human CCR10 by a calcium assay were prepared. Human CCR10-inducible expressing cells whose host cell is KJMGER8 cell (cell line derived from Namalwa cell) were prepared according to a known method (“Analy Biochem”, 2006, vol. 400, page 163). Human CCR10-inducible expression plasmid produced above and Gα16 expression plasmid were co-transfected into KJMGER8 cell by an electroporation method (“Cytotechnology”, 1990, vol. 3, page 133), whereby a signal from human CCR10 could be detected by a calcium assay (hereinafter to be referred to as hCCR10G16 cell). Gα16 expression plasmid was produced by incorporating human Gα16 DNA into expression vector pAMoh (WO03/087366). Induced expression of human CCR10 was performed by cultivating hCCR10G16 cells in the presence of 10 nmol/L β-estradiol (manufactured by Sigma Ltd.) for 24 hr.
Cells expressing human CCR10 induced by the above-mentioned method were suspended in RPMI1640 medium and adjusted to cell density of 1.25×10^6 cells/mL. This mixture was dispensed to a 384 well clear bottom plate (manufactured by Corning Incorporated) at 20 μL/well, and these were incubated at 37° C. for several dozen minutes. A loading buffer prepared according to the protocol attached to FLIPR Calcium 3 assay kit (manufactured by Molecular Device) was dispensed to this plate at 20 μL/well, and the plate was incubated at 37° C. for 60 min. A 33 μmol/L DMSO solution of the test compound was diluted 37-fold with RPMI1640 medium and the resulting solution was added at 5 μL/well, and the mixture was incubated at 37° C. for 30 min. 300 nmol/L human recombinant CTACK (manufactured by R and D Systems) diluted with RPMI1640 medium containing 1 w/v % bovine serum albumin was added at 5 μL/well. Change of the intracellular calcium ion concentration for about 5 min after the addition was measured by FLIPR (manufactured by Molecular Device) or FDSS (manufactured by Hamamatsu Photonics K.K.). The difference between the maximum fluorescence intensity and the minimum fluorescence intensity for 5 min was calculated, and taken as the measurement value (maximum fluorescence intensity−minimum fluorescence intensity). […]
(In general: Calcium flux is commonly read through the fluorescence of an indicator in the cells.)
Take `Cc1ccc(Cl)c(Nc2c(C(=O)N3CCC4(CC3)OCc3ccccc34)cnc3c(S(=O)(=O)NC(=O)NCC(F)(F)F)cnn23)c1` [a-82, 7-(2-Chloro-5-methylphenylamino)-6-[3H-spiro(isobenzofuran-1,4′-piperidine)-1′-carbonyl]-N-(2,2,2-trifluoroethylcarbamoyl)pyrazolo[1,5-a]pyrimidine-3-sulfonamide]: the inhibition at 0.1 µM came to 75.3%. For `Cc1ccc(Cl)c(Nc2c(C(=O)N3CCC(c4ccc(F)cc4)CC3)cnc3c(S(=O)(=O)NC(N)=O)cnn23)c1` [a-77, N-Carbamoyl-7-(2-chloro-5-methylphenylamino)-6-[4-(4-fluorophenyl)piperidine-1-carbonyl]pyrazolo[1,5-a]pyrimidine-3-sulfonamide], the inhibition at 0.1 µM is over 100%.

In the case of `CCC(=O)NS(=O)(=O)c1cnn2c(Nc3cc(C)ccc3F)c(C(=O)N3CCC4(CC3)OCc3ccccc34)cnc12` [a-51, N-{7-(2-Fluoro-5-methylphenylamino)-6-[3H-spiro(isobenzofuran-1,4′-piperidine)-1′-carbonyl]pyrazolo[1,5-a]pyrimidin-3-ylsulfonyl}propionamide], the inhibition at 0.1 µM was over 100%. As for `CC1(C(=O)NS(=O)(=O)c2cnn3c(Nc4cc(Cl)ccc4Cl)c(C(=O)N4CCC(c5ccc(F)cc5)CC4)cnc23)COC1` [a-25, N-{7-(2,5-Dichlorophenylamino)-6-[4-(4-fluorophenyl)piperidine-1-carbonyl]pyrazolo[1,5-a]pyrimidin-3-ylsulfonyl}-3-methyloxetane-3-carboxamide], the inhibition at 0.1 µM is over 100%.

For `Cc1cc(F)ccc1Nc1c(C(=O)N2CCC(c3ccccc3)CC2)cnc2c(S(=O)(=O)NC(=O)CO)cnn12` [a-65, N-[7-(4-Fluoro-2-methylphenylamino)-6-(4-phenylpiperidine-1-carbonyl)pyrazolo[1,5-a]pyrimidin-3-ylsulfonyl]-2-hydroxyacetamide], the inhibition at 0.1 µM is over 100%. On to `CCC(=O)NS(=O)(=O)c1cnn2c(Nc3cc(Cl)ccc3Cl)c(C(=O)N3CCC(c4ccc(F)cc4)CC3)cnc12` [a-22, N-{7-(2,5-Dichlorophenylamino)-6-[4-(4-fluorophenyl)piperidine-1-carbonyl]pyrazolo[1,5-a]pyrimidin-3-ylsulfonyl}propionamide], for which the inhibition at 0.1 µM was over 100%.

In the case of `CC(=O)NS(=O)(=O)c1cnn2c(Nc3cc(Cl)ccc3Cl)c(C(=O)N3CCC(c4ccc(F)cc4)CC3)cnc12` [a-24, N-{7-(2,5-Dichlorophenylamino)-6-[4-(4-fluorophenyl)piperidine-1-carbonyl]pyrazolo[1,5-a]pyrimidin-3-ylsulfonyl}acetamide], the inhibition at 0.1 µM is over 100%. As for `CCNC(=O)NS(=O)(=O)c1cnn2c(NCc3ccccc3)c(C(=O)N3CCC(c4ccccc4)CC3)cnc12` [a-76, 7-Benzylamino-N-ethylcarbamoyl-6-(4-phenylpiperidine-1-carbonyl)pyrazolo[1,5-a]pyrimidine-3-sulfonamide], the figure is 95.1%.

Turning to `Cc1cc(F)ccc1Nc1c(C(=O)N2CCC(c3ccccc3)CC2)cnc2c(S(=O)(=O)NC(=O)Nc3ccccc3)cnn12` [a-67, 7-(4-Fluoro-2-methylphenylamino)-N-phenylcarbamoyl-6-(4-phenylpiperidine-1-carbonyl)pyrazolo[1,5-a]pyrimidine-3-sulfonamide], the inhibition at 0.1 µM was 63.7%. As for `CCNC(=O)NS(=O)(=O)c1cnn2c(Nc3cc(C)c(F)cc3Cl)c(C(=O)N3CCC(c4ccc(F)cc4)CC3)cnc12` [a-42, 7-(2-Chloro-4-fluoro-5-methylphenylamino)-N-(ethylcarbamoyl)-6-[4-(4-fluorophenyl)piperidine-1-carbonyl]pyrazolo[1,5-a]pyrimidine-3-sulfonamide], the inhibition at 0.1 µM was over 100%. With `Cc1ccc(Cl)c(Nc2c(C(=O)N3CCC(c4ccc(F)cc4)CC3)cnc3c(S(=O)(=O)NC(=O)NC4CC4(F)F)cnn23)c1` (stereo not drawn) [a-37, 7-(2-Chloro-5-methylphenylamino)-N-(2,2-difluorocyclopropylcarbamoyl)-6-[4-(4-fluorophenyl)piperidine-1-carbonyl]pyrazolo[1,5-a]pyrimidine-3-sulfonamide], the inhibition at 0.1 µM was over 100%. Consider `CCC(=O)NS(=O)(=O)c1cnn2c(Nc3cc(C)ccc3Cl)c(C(=O)N3CC4(C3)CN(c3ccc(F)cc3)C4)cnc12` [a-60, N-{7-(2-Chloro-5-methylphenylamino)-6-[6-(4-fluorophenyl)-2,6-diazaspiro[3,3]heptane-2-carbonyl]pyrazolo[1,5-a]pyrimidin-3-ylsulfonyl}propionamide], for which the inhibition at 0.1 µM worked out at 90.2%. The same measure for `CCNC(=O)NS(=O)(=O)c1cnn2c(Nc3ccc(Cl)cc3Cl)c(C(=O)N3CCC(c4ccc(F)cc4)CC3)cnc12` [a-20, 7-(2,4-Dichlorophenylamino)-N-(ethylcarbamoyl)-6-[4-(4-fluorophenyl)piperidine-1-carbonyl]pyrazolo[1,5-a]pyrimidine-3-sulfonamide]: 90.7%. As for `CCNC(=O)NS(=O)(=O)c1cnn2c(Nc3ccccc3Cl)c(C(=O)N3CCC(c4ccccc4)CC3)cnc12` [a-7, 7-(2-Chlorophenylamino)-N-(ethylcarbamoyl)-6-(4-phenylpiperidine-1-carbonyl)pyrazolo[1,5-a]pyrimidine-3-sulfonamide], the figure is 92.4%; as for `Cc1ccc(Cl)c(Nc2c(C(=O)N3CCC4(CC3)OCc3ccccc34)cnc3c(S(=O)(=O)NC(=O)NC4CCOCC4)cnn23)c1` [a-81, 7-(2-Chloro-5-methylphenylamino)-6-[3H-spiro(isobenzofuran-1,4′-piperidine)-1′-carbonyl]-N-(tetrahydro-2H-pyran-4-ylcarbamoyl)pyrazolo[1,5-a]pyrimidine-3-sulfonamide], 62.3%; as for `CCC(=O)NS(=O)(=O)c1cnn2c(Nc3ccc(Cl)cc3Cl)c(C(=O)N3CCC(c4ccc(F)cc4)CC3)cnc12` [a-19, N-{7-(2,4-Dichlorophenylamino)-6-[4-(4-fluorophenyl)piperidine-1-carbonyl]pyrazolo[1,5-a]pyrimidin-3-ylsulfonyl}propionamide], 97%. The same measure for `Cc1ccc(F)c(Nc2c(C(=O)N3CCC(c4ccc(F)cc4)CC3)cnc3c(S(=O)(=O)NC(=O)NC4CC4)cnn23)c1` [a-32, 7-(2-Fluoro-5-methylphenylamino)-N-(cyclopropylcarbamoyl)-6-[4-(4-fluorophenyl)piperidine-1-carbonyl]pyrazolo[1,5-a]pyrimidine-3-sulfonamide]: over 100%. Take `COC(=O)NS(=O)(=O)c1cnn2c(Nc3ccc(F)cc3C)c(C(=O)N3CCC(c4ccccc4)CC3)cnc12` [a-72, Methyl 7-(4-fluoro-2-methylphenylamino)-6-(4-phenylpiperidine-1-carbonyl)pyrazolo[1,5-a]pyrimidin-3-ylsulfonylcarbamate]: the inhibition at 0.1 µM came to 90.7%.

Values taken from patent publication US20140221340A1 (KYOWA HAKKO KIRIN CO., LTD., priority 2011, published 2014).
